This is an account of results in ChEMBL document CHEMBL4765387, “Design of G-protein-coupled bile acid receptor 1 (GPBAR1, TGR5) soft drugs with reduced gallbladder-filling effects” (Eur J Med Chem, 2020).

Series [1] is described as follows: Stability of the compound in mouse plasma assessed as parent compound remaining at 1 uM measured after 5 mins. Format: ADME, cell-free. The following applies: read-out: Stabilty.
Series [2] is described as follows: Cmax in overnight-fasted ICR mouse bile assessed as 5-[3-(4-Cyclopropyl-3,4-dihydro-2H-quinoxaline-1-carbonyl)-pyridin-4-yloxy]-benzofuran-3-carboxylic acid at 50 mg/kg, po measured after 1 hr by LC-MS/MS analysis. In kind it is ADME, organism-based. Also on record: route oral, time 1 hrs, dose 50 mg/kg. The following applies: in vivo.
A short description of series [3]: Cmax in overnight-fasted ICR mouse systemic circulation assessed as 5-[3-(4-Cyclopropyl-3,4-dihydro-2H-quinoxaline-1-carbonyl)-pyridin-4-yloxy]-benzofuran-3-carboxylic acid at 50 mg/kg, po measured after 1 hr by LC-MS/MS analysis. Format: ADME, organism-based. Also on record: route oral, dose 50 mg/kg, time 1 hrs. The following applies: in vivo.
Series [4] in a line: Cmax in overnight-fasted ICR mouse gallbladder tissue assessed as 5-[3-(4-Cyclopropyl-3,4-dihydro-2H-quinoxaline-1-carbonyl)-pyridin-4-yloxy]-benzofuran-3-carboxylic acid at 50 mg/kg, po measured after 1 hr by LC-MS/MS analysis. Format: ADME, organism-based, Gall bladder. Also on record: route oral, time 1 hrs, dose 50 mg/kg. The note with it: in vivo.
A short description of series [5]: Peak drug concentration in overnight-fasted ICR mouse colon at 50 mg/kg, po measured after 4 hr by LC-MS/MS analysis. Format: ADME, organism-based. Also on record: route oral, time 4 hrs, dose 50 mg/kg.
A short description of series [6]: Peak drug concentration in overnight-fasted ICR mouse ileum at 50 mg/kg, po measured after 2 hr by LC-MS/MS analysis. In kind it is ADME, organism-based. Also on record: route oral, dose 50 mg/kg, time 2 hrs.
Series [7] is described as follows: Cmax in overnight-fasted ICR mouse systemic circulation at 50 mg/kg, po measured after 1 hr by LC-MS/MS analysis. In kind it is ADME, organism-based. Also on record: route oral, time 1 hrs, dose 50 mg/kg.

Consider `CCOC(=O)c1coc2cc(Cl)c(Oc3ccncc3C(=O)N3CCN(C4CC4)c4ccccc43)cc12`, for which, in series [1], the remaining at 5 min, 1 µM was determined as 92.4%.
For `CCCOC(=O)c1coc2ccc(Oc3ccncc3C(=O)N3CCN(C4CC4)c4ccccc43)cc12`, in series [1], the remaining at 5 min, 1 µM is 12.3%.
On to `COC(=O)c1coc2ccc(Oc3ccncc3C(=O)N3CCN(C4CC4)c4ccccc43)cc12`, for which, in series [1], the remaining at 5 min, 1 µM was 71%.
Consider `CCOC(=O)c1coc2ccc(Oc3ccncc3C(=O)N3CCN(C4CC4)c4ccccc43)cc12`, for which the remaining at 5 min, 1 µM in series [1] is 38.5%.
The term Cmax denotes the maximum level reached in the sampled fluid or tissue. Turning to `CCOCOC(=O)c1coc2ccc(Oc3ccncc3C(=O)N3CCN(C4CC4)c4ccccc43)cc12`, the Cmax in series [2] is 80 ng/mL; in series [3], 80 ng/mL; in series [4], 80 ng/mL; in series [5], 2700 ng/g; in series [6] it was 10200 ng/g; in series [7] it was 3 ng/mL.
